Columns and labels:
[1] = test system: LPS-induced sepsis; test: Survival in LPS mouse model of sepsis; type: in vivo, mice
Protocol: Fifty-percent of all mice with LPS-induced sepsis that are left untreated are dead within 48 hours. When these LPS mice are treated with clinically relevant doses of the common and experimental sepsis drugs hydrocortisone, antithrombin III or sivelestat, survival ranged from 40-56%, similar to current clinical outcomes. In contrast, when LPS mice were co-administered CAR at the same time as hydrocortisone, antithrombin III or sivelestat, experimental sepsis survival improved to 83-89%.
Injection of the bacterial protein, lipopolysaccharide (LPS), was used to induce sepsis in mice. Doses were given at 3, 6, 9, and 12 hours to match the clinical use of sivelestat. Survival was measured up to 48 hours after LPS injection. At 48 hours, the survival rate of CAR pharmacophore+sivelestat treated animals was 89% compared to 50% in both control and sivelestat only groups, representing a 78% increase in survival of animals treated with CAR pharmacophore (FIG. 12).
Sepsis was initiated and survival measured with doses given at 3 and 24 hours to match the clinical use of ATIII. […]
CAR pharmacophore dramatically improves survival in septic mice treated with hydrocortisone steroid. Sepsis was initiated and survival measured with doses given at 3 and 24 hours to match the clinical use of hydrocortisone. […]

[2] = test system: sepsis; settings: cited from earlier work
[3] = test system: monocrotaline-induced PAH; test: Monocrotaline-induced (MCT) PAH rat model, co-administration with imatinib; type: in vivo, Sprague-Dawley rats; settings: prolonged intravenous administration of imatinib alone
Protocol: CAR pharmacophore co-administration with imatinib in a rat model of monocrotaline-induced (MCT) PAH was used to observe the therapeutic utility of CAR for targeting PAH. CAR pharmacophore peptide was intravenously co-administered with 10 mg/kg or 50 mg/kg imatinib for 14 days starting 4 weeks post MCT induction.
PAH was induced in male Sprague-Dawley rats (300-330 g, 10 weeks old, Harlan) with a single intraperitoneal dose of monocrotaline (60 mg/kg). Treatment was initiated four weeks after PAH induction with either imatinib (50 mg/kg or 10 mg/kg) or imatinib (50 mg/kg or 10 mg/kg)+CAR pharmacophore combination (3 mg/kg) for 2 weeks with daily i.v. (FIGS. 22 and 23) or daily sublingual administration.

[4] = test system: MDA-MB-231 cells; test: Triple negative breast cancer model in athymic nude mice; type: in vivo; settings: after 32 days; 3 mg/kg i.v. every other day, 15 doses
Protocol: In female athymic nude mice (CRL: NU(NCr)—Foxn1nu, 11 weeks old, Charles River), triple negative breast cancer tumors were initiated via subcutaneous injection of 5×10^6 MDA-MB-231 cells into the right flank. Tumor growth was monitored until the average tumor size approached 100-150 mm3. […] Animals were dosed intravenously every other day for a total of 15 doses. Tumor volume was measured using calipers twice per week and animals weighed daily on days 1-5 and then on a twice weekly schedule.

[5] = test system: lung, liver and kidney endothelium of septic animals; test: Scanning electron micrograph of lung, liver and kidney tissue in LPS sepsis; type: in vivo, mice
[6] = test system: CHO cells; settings: prior experiments; linear truncated peptides; cited from earlier work
[7] = test system: diseased kidney (anti-glomerular basement membrane antibody induced glomerular injury); test: CAR pharmacophore targeting in rat model of crescentic glomerular nephritis; type: in vivo; settings: i.v. 3.3 mg/kg B.W., 14 days after induction, kidneys harvested three hours after injection
Protocol: A rat model of crescentic glomerular nephritis (anti-glomerular basement membrane antibody induced glomerular injury) was used to observe the utility of CAR pharmacophore targeting in chronic kidney disease. Glomerulonephritis was induced in rat kidneys by i.v. injection of anti-glomerular basement membrane antibodies. 14 days after induction, CAR pharmacophore peptide or control ([…] SEQ ID NO: 34) peptide was i.v. injected at 3.3 mg/kg B.W. Kidneys were harvested three hours after CAR pharmacophore or control injection and Masson's trichrome (collagen) staining and fibronectin immunostaining were used to determine development of kidney disease and fibrosis formation.

[8] = meta-analysis of 8 trials (Iwata et al., 2010)

C[C@]12CCC(=O)C=C1CC[C@@H]1[C@@H]2[C@@H](O)C[C@@]2(C)[C@H]1CC[C@]2(O)C(=O)CO [hydrocortisone]
survival rate ([1]; 48 hours, hydrocortisone only, doses at 3 and 24 hours): 56%
super infection ([2]; low-dose hydrocortisone therapy, septic shock): more episodes of super infection
survival in patients with septic shock ([2]; low-dose hydrocortisone therapy): did not improve survival

Cc1ccc(NC(=O)c2ccc(CN3CCN(C)CC3)cc2)cc1Nc1nccc(-c2cccnc2)n1 [imatinib]
effect on bodyweight [3]: significant adverse effect on bodyweight

CC(=O)O[C@H]1C(=O)[C@@]2(C)[C@H]([C@H](OC(=O)c3ccccc3)[C@]3(O)C[C@H](OC(=O)[C@H](O)[C@@H](NC(=O)c4ccccc4)c4ccccc4)C(C)=C1C3(C)C)[C@]1(OC(C)=O)CO[C@@H]1C[C@@H]2O [paclitaxel]
bodyweight gain relative to average starting bodyweight [4]: 5%

CC(C)(C)C(=O)Oc1ccc(S(=O)(=O)Nc2ccccc2C(=O)NCC(=O)O)cc1 [sivelestat]
survival rate ([1]; 48 hours after LPS injection, doses at 3, 6, 9, and 12 hours): 50%
180 day mortality [2, 8]: possibly increased
mechanical ventilation days [2, 8]: no difference
mortality rate within 28-30 days after randomization [2, 8]: no difference
pulmonary arteriole endothelium degradation (SEM, lung) [5]: did not prevent degradation of the continuous pulmonary arteriole endothelium
sieve plates (SEM, liver) [5]: not able to prevent defenestration of sieve plates
tissue damage (SEM, kidney) [5]: did not prevent gross tissue damage

CARSKNK [SEQ ID NO: 24]
cell binding and tissue homing [6]: highly active

CGGGGGGGC [control peptide]
accumulation in the diseased kidney [7]: largely cleared from the kidney
